Source: PMC9043997, “LEAP2 reduces postprandial glucose excursions and ad libitum food intake in healthy men” (Cell Reports Medicine, 2022)
Where a SMILES comes first, the peptide text is derived from it. Bridges are numbered along the chain shown (N, C = ends).

Tests used:
[1] = tested on: healthy men; test: Plasma glucagon during LEAP2 infusion, crossover study; format: in vivo, human; conditions: mean ± SEM
Source text: (§1) The infusion was terminated when participants had finished eating.
(§2) For analysis of plasma glucose, blood was distributed in fluoride heparin-coated tubes, centrifuged immediately for 30 s (12,100 g, room temperature) and measured bedside by the glucose oxidase method (YSI 2900 Biochemistry Analyzer; YSI Incorporated, Yellow Springs, Ohio, USA). For analysis of LEAP2, blood was collected in chilled K3EDTA tubes each containing 250 KIU of aprotinin. For analysis of acyl ghrelin, blood was collected in chilled K2EDTA tubes added 20 μL pefabloc (100 mg/mL; Merck Millipore, Burlington, Massachusetts, USA). Subsequently, pefabloc-treated plasma was acidified with HCl (12.5 μL 2M HCl per 500 μL plasma; Merck Millipore, Burlington, Massachusetts, USA). For analysis of glucagon, blood was collected in K2EDTA tubes. For analysis of GH, insulin, C-peptide, free fatty acids, glycerol, triglycerides and acetaminophen (paracetamol), blood was collected in tubes with lithium and heparin. All tubes were immediately cooled on ice, centrifuged for 15 min (2,000 g, 4°C) and stored at −80°C until analysis. LEAP2 concentrations were determined by an in-house radioimmunoassay directed against the N-terminal part of LEAP2. LEAP-2 was used for standards, and the tracer was a peptide composed of the 12 N-terminal amino acids of LEAP2, with a ^125I-labelled tyrosine added to the C-terminal end. The precision and accuracy of the assay were evaluated based on European Medicines Agency's guidelines for bioanalytical assay validation. […] Due to supply chain disruptions from the COVID-19 pandemic, acyl ghrelin was only measured in plasma samples at timepoints 0, 60, 105, 165 and 255 min. […] Plasma GH was measured by Immunodiagnostic system-iSYS assay (IS-3700; IDS Limited, Boldon, UK). The assay is based on chemiluminesence technology and was performed according to the manufacturer’|'s instructions. […] For analysis of glucagon, plasma was extracted in a final concentration of 70% ethanol. Glucagon was measured using a C-terminal directed antiserum (code number 4305) measuring glucagon of pancreatic origin as previously described.[40] […] Plasma insulin and C-peptide were measured using a two-sided electrochemiluminescence immunoassay (Atellica IM Analyzer; Siemens Healthcare, Ballerup, Denmark). Plasma triglycerides and acetaminophen were analyzed by spectrophotometric methods following enzymatic hydrolysis and oxidation (Siemens Atellica CH 930; Siemens Healthcare, Ballerup, Denmark). Plasma concentrations of free fatty acids and glycerol were determined by enzymatic methods modified to run on a COBAS 6000 automatic analyzer (Roche, Rødovre, Denmark) using a NEFA-HR assay (Wako Chemicals, Neuss, Germany) and glycerol assay (Randox Laboratories, Crumlin, UK), respectively.
(§3) Unless otherwise stated, results are presented as mean ± SEM. Baseline values were calculated as a mean of timepoints −35, −10 and 0 min or, when only available −10 and 0 min. Baseline values for the postprandial period were calculated as a mean of timepoint 60 min. Calculations of AUC were based on the trapezoidal rule. AUC values are reported for the period 0 to 255 min. To assess the fasting and postprandial periods separately, AUC values are reported for the periods 0 to 60 min and 60 to 255 min, respectively. Student’s paired t test was used to test for differences in baseline, peak, time to peak, AUC and mean values and ad libitum food intake in men.

[2] = tested on: healthy men; test: Plasma free fatty acids, glycerol and triglycerides during LEAP2 infusion, crossover study; format: in vivo, human; conditions: mean ± SEM
Source text: as §1, §2, §3

[3] = tested on: healthy men; test: Plasma glucose during LEAP2 infusion with liquid mixed meal test, crossover study; format: in vivo, human; conditions: mean ± SEM
Source text: as §1, §2, §3

[4] = tested on: healthy men; test: Plasma growth hormone during LEAP2 infusion, crossover study; format: in vivo, human; conditions: mean ± SEM
Source text: as §1, §2, §3

[5] = tested on: wild-type mice; test: Plasma glucose and food intake after subcutaneous LEAP2 in wild-type mice; format: in vivo, mouse
Protocol: Food intake and blood glucose measurements were measured in female GHSR-null mice (n = 8) and wild-type littermates (n = 10) (14–24 weeks of age). Mice were double-housed with matching genotype and age. All mice were fasted for four hours and randomized by mean body weight per cage and allocated into either vehicle (saline) or LEAP2 administration on the first day of the study. LEAP2 or vehicle was administered subcutaneously just before start of dark phase (6 PM). By start of dark phase, mice had ad libitum access to water and a normal chow diet. Cumulative food intake was measured one, two and four hours after administration and calculated as the average food intake per cage per g body weight of each mouse, respectively. Blood glucose was measured in blood from a tail puncture at baseline and one, two and four hours after administration by use of a glucometer (Contour ™xt meter; Ascensia Diabetes Care, Basel, Switzerland). One week later, mice underwent the same procedure, but with the opposite treatment. The concentration of the LEAP2 dose was 3 μmol/kg.

[6] = healthy men n = 20, LEAP2 day, before infusion
[7] = healthy men n = 20, iv LEAP2 ~25 pmol/kg/min, 0 to 255 min
[8] = healthy men n = 20, iv LEAP2 ~25 pmol/kg/min, fasting period
[9] = healthy men n = 20, iv LEAP2 ~25 pmol/kg/min, liquid mixed meal at 65 min
[10] = healthy men n = 20, iv LEAP2 ~25 pmol/kg/min, postprandial period
[11] = healthy men n = 20, iv LEAP2 ~25 pmol/kg/min, time = 60 min

CC[C@H](C)[C@@H]1NC(=O)[C@@H]2CSSC[C@@H](C(=O)N[C@@H](CO)C(=O)N[C@@H](CC(C)C)C(=O)N[C@@H](CO)C(=O)N[C@H](C(=O)N[C@@H](C)C(=O)N[C@@H](CCC(N)=O)C(=O)N[C@@H](CCC(=O)O)C(=O)O)C(C)C)NC(=O)[C@H](CCCNC(=N)N)NC(=O)[C@H](CCCNC(=N)N)NC(=O)[C@H](CCCCN)NC(=O)[C@H](CCCNC(=N)N)NC(=O)[C@H](CSSC[C@H](NC(=O)[C@H](CO)NC(=O)[C@H](C)NC(=O)CNC(=O)[C@@H](NC(=O)[C@@H]3CCCN3C(=O)[C@H](CCCNC(=N)N)NC(=O)[C@H](CC(C)C)NC(=O)[C@H](CO)NC(=O)[C@@H](NC(=O)CNC(=O)[C@H](CCCNC(=N)N)NC(=O)[C@H](Cc3c[nH]c4ccccc34)NC(=O)[C@H](Cc3ccccc3)NC(=O)[C@@H]3CCCN3C(=O)[C@@H](NC(=O)[C@@H](N)CCSC)[C@@H](C)O)C(C)C)[C@@H](C)CC)C(=O)N[C@@H](CCCNC(=N)N)C(=O)N[C@@H](CC(=O)O)C(=O)N[C@@H](CC(=O)O)C(=O)N[C@@H](CO)C(=O)N[C@@H](CCC(=O)O)C(=O)N2)NC(=O)[C@H](CC(C)C)NC(=O)[C@H](CCCNC(=N)N)NC(=O)[C@H]([C@@H](C)O)NC1=O [LEAP2, liver-expressed antimicrobial peptide 2] (H-MTPFWRGVSLRPIGASCRDDSECITRLCRKRRCSLSVAQE-OH; disulfide 17-28, 23-33 (inferred); N-terminus and C-terminus assumed)
Glucagon Baseline [1, 6]: 6.57 ± 0.76 pmol/L | Glucagon AUC [1, 7]: 2.26 ± 0.20 nmol·min/L | Glucagon AUC0–60 min [1, 8]: 0.446 ± 0.044 nmol·min/L | Glucagon Peak [1, 9]: 13.0 ± 0.94 pmol/L | Glucagon Time to peak [1, 9]: 116 ± 12.5 min | Glucagon AUC60–255 min [1, 10]: 1.82 ± 0.17 nmol·min/L | Glucagon Postprandial baseline [1, 11]: 7.35 ± 0.82 pmol/L | Free fatty acids Baseline [2, 6]: 339 ± 18.4 µmol/L | Glycerol Baseline [2, 6]: 26.6 ± 2.45 µmol/L | Triglycerides Baseline [2, 6]: 920 ± 62.2 µmol/L | Free fatty acids AUC [2, 7]: 43.2 ± 2.49 mmol·min/L | Glycerol AUC [2, 7]: 4.87 ± 0.57 mmol·min/L | Triglycerides AUC [2, 7]: 263 ± 16.7 mmol·min/L | Free fatty acids AUC0–60 min [2, 8]: 18.9 ± 1.18 mmol·min/L | Glycerol AUC0–60 min [2, 8]: 1.65 ± 0.15 mmol·min/L | Triglycerides AUC0–60 min [2, 8]: 53.5 ± 3.14 mmol·min/L | Free fatty acids Nadir [2, 9]: 58.4 ± 3.94 µmol/L | Free fatty acids Time to nadir [2, 9]: 155 ± 7.63 min | Glycerol Nadir [2, 9]: 11.7 ± 2.12 µmol/L | Glycerol Time to nadir [2, 9]: 144 ± 10.2 min | Triglycerides Peak [2, 9]: 1,275 ± 84.8 μmol/L | Triglycerides Time to peak [2, 9]: 195 ± 5.33 min | Free fatty acids AUC60–255 min [2, 10]: 24.4 ± 1.51 mmol·min/L | Glycerol AUC60–255 min [2, 10]: 3.22 ± 0.44 mmol·min/L | Triglycerides AUC60–255 min [2, 10]: 210 ± 13.8 mmol·min/L | Free fatty acids Postprandial baseline [2, 11]: 272 ± 16.4 µmol/L | Glycerol Postprandial baseline [2, 11]: 22.9 ± 2.12 µmol/L | Triglycerides Postprandial baseline [2, 11]: 847 ± 48.3 µmol/L | Glucose Baseline ([3]; healthy men n = 20, LEAP2 day, before infusion (mean of -35, -10, 0 min)): 5.02 ± 0.06 mmol/L | Glucose AUC ([3]; healthy men n = 20, iv LEAP2 ~25 pmol/kg/min, 0 to 255 min, trapezoidal): 1,288 ± 13.4 mmol/L × min | Glucose Postprandial end ([3]; healthy men n = 20, iv LEAP2 ~25 pmol/kg/min, after liquid mixed meal): 4.48 ± 0.11 mmol/L | plasma glucose AUC 0–60 min [3, 8]: 295 ± 3.02 mmol/L/min | Glucose Peak [3, 9]: 6.21 ± 0.12 mmol/L | Glucose Time to peak [3, 9]: 140 ± 12.7 min | Glucose AUC60–255 min ([3]; healthy men n = 20, iv LEAP2 ~25 pmol/kg/min, postprandial period after liquid mixed meal): 992 ± 12.4 mmol·min/L | Glucose Postprandial baseline [3, 11]: 4.96 ± 0.05 mmol/L | Growth hormone Baseline [4, 6]: 0.594 ± 0.300 ng/mL | Growth hormone AUC [4, 7]: 33.8 ± 11.8 ng·min/mL | Growth hormone AUC0–60 min [4, 8]: 20.2 ± 9.76 ng·min/mL | Growth hormone Nadir [4, 9]: 0.042 ± 0.004 ng/mL | Growth hormone Time to nadir [4, 9]: 116 ± 17.2 min | Growth hormone AUC60–255 min [4, 10]: 13.6 ± 2.32 ng·min/mL | Growth hormone Postprandial baseline [4, 11]: 0.121 ± 0.048 ng/mL | plasma glucose during ad libitum food intake 1 h after dosing vs vehicle ([5]; female wild-type mice n = 10, LEAP2 3 μmol/kg single subcutaneous dose, after 4 h fast): significantly diminished increases in plasma glucose | glucose-lowering effect at later time points (2 and 4 h) ([5]; female wild-type mice n = 10, LEAP2 3 μmol/kg subcutaneous): not at the later time points | cumulative food intake 2 and 4 h after dosing vs vehicle ([5]; female wild-type mice n = 10, LEAP2 3 μmol/kg subcutaneous, chow ad libitum from start of dark phase): lowered the cumulative food intake
